The nature of the data set: method code SF-HPLC, from DOI: 10.1016/j.ejmech.2006.12.027, PMID: 17306423.

As a reminder, the logP is the decadic logarithm of the partition coefficient of the neutral form, usually between octanol and water. Lower therefore signals lower lipophilicity.

Molecule `CC1(C)N(O)C(c2cccc([N+](=O)[O-])c2)=[N+]([O-])C1(C)C` showed a logP of 1.64.

`COc1ccc(C2=[N+]([O-])C(C)(C)C(C)(C)N2O)cc1` showed a logP of 1.62.

As to `COc1cc(C2=[N+]([O-])C(C)(C)C(C)(C)N2O)ccc1O`, the logP worked out at 1.14.

Turning to `CC1(C)N(O)C(c2cccc(O)c2)=[N+]([O-])C1(C)C`, the lipophilicity (logP) was 1.14.

As to `CC1(C)N(O)C(c2ccc([N+](=O)[O-])cc2)=[N+]([O-])C1(C)C`, the logP is 1.68.

On to `CC1(C)N(O)C(c2ccccc2[N+](=O)[O-])=[N+]([O-])C1(C)C`, for which the logP is 0.91.

The molecule `Cc1ccc(C2=[N+]([O-])C(C)(C)C(C)(C)N2O)cc1` had a logP of 1.9.

In turn, `CC1(C)N(O)C(c2ccccc2)=[N+]([O-])C1(C)C` yielded a log partition coefficient (logP) of 1.37.

In turn, `CC1(C)N(O)C(c2ccc(O)cc2)=[N+]([O-])C1(C)C` yielded a logP of 0.62.

For `COc1ccc(C2=[N+]([O-])C(C)(C)C(C)(C)N2O)cc1OC`, the logP amounted to 1.15.

Molecule `CC1(C)N(O)C(c2ccco2)=[N+]([O-])C1(C)C` gave a logP of 0.62.

Molecule `CC1(C)N(O)C(c2ccc(Cl)cc2Cl)=[N+]([O-])C1(C)C` came in with a logP of 1.93.

As for `CC1(C)N(O)C(c2ccc(Cl)cc2)=[N+]([O-])C1(C)C`, the logP was determined as 2.33.

For `CC1(C)N(O)C(c2ccc3c(c2)OCO3)=[N+]([O-])C1(C)C`, the lipophilicity (logP) is 1.51.

Regarding `CC1(C)N(O)C(c2ccccc2F)=[N+]([O-])C1(C)C`, the logP is 0.82.

For the molecule `COc1ccc(C2=[N+]([O-])C(C)(C)C(C)(C)N2O)c(OC)c1`, the logP was 0.77.

`CC1(C)N(O)C(c2ccc(Br)cc2)=[N+]([O-])C1(C)C` showed a logP of 2.46.

On to `CC1(C)N(O)C(c2cccnc2)=[N+]([O-])C1(C)C`, for which the logP amounted to 0.51.

Molecule `CC1(C)N(O)C(c2ccccc2O)=[N+]([O-])C1(C)C` showed a logP of 1.17.

Regarding `COc1ccc(C2=[N+]([O-])C(C)(C)C(C)(C)N2O)cc1O`, the logP was 0.92.

As to `CN(C)c1ccc(C2=[N+]([O-])C(C)(C)C(C)(C)N2O)cc1`, the lipophilicity (logP) turned out to be 2.02.

Consider `CC1(C)N(O)C(c2ccc(OCC(=O)O)cc2)=[N+]([O-])C1(C)C`, for which the logP was -0.52.

These data come from the SangsterLogP compilation.
